Experimental data reported in ChEMBL document CHEMBL4038287, “Design, synthesis, and in vitro evaluation of novel antifungal triazoles” (2017).
≈ marks a conversion by molar mass, not a printed value.

Columns and labels:
Assay type in all cases: functional
Nannizzia gypsea = assay: Antifungal activity against Microsporum gypseum isolate cmccftla by micro-broth dilution method
Candida albicans [1] = assay: Antifungal activity against Candida albicans isolate Y0109 by micro-broth dilution method
Candida parapsilosis = assay: Antifungal activity against Candida parapsilosis isolate 22019 by micro-broth dilution method; settings: Lodderomyces parapsilosis
Aspergillus fumigatus = assay: Antifungal activity against Aspergillus fumigatus isolate 7544 by micro-broth dilution method
Nakaseomyces glabratus = assay: Antifungal activity against Candida glabrata isolate 537 by micro-broth dilution method
Cryptococcus neoformans = assay: Antifungal activity against Cryptococcus neoformans isolate 32605 by micro-broth dilution method
Trichophyton rubrum = assay: Antifungal activity against Trichophyton rubrum isolate cmccftla by micro-broth dilution method
Candida albicans [2] = assay: Antifungal activity against Candida albicans isolate SC5314 by micro-broth dilution method

Compound	MIC80 (Nannizzia gypsea)	MIC80 (Candida albicans [1])	MIC80 (Candida parapsilosis)	MIC80 (Aspergillus fumigatus)	MIC80 (Nakaseomyces glabratus)	MIC80 (Cryptococcus neoformans)	MIC80 (Trichophyton rubrum)	MIC80 (Candida albicans [2])
C[C@@H](c1cc(-c2ccccc2F)no1)[C@](O)(Cn1cncn1)c1cc(F)ccc1F	> 8 µg/mL	0.5 µg/mL (≈ 1.21 µM)	1 µg/mL (≈ 2.41 µM)	> 8 µg/mL	0.0625 µg/mL (≈ 0.151 µM)	0.0625 µg/mL (≈ 0.151 µM)	2 µg/mL (≈ 4.83 µM)	0.5 µg/mL (≈ 1.21 µM)
C[C@@H](c1cc(-c2ccc(Cl)cc2F)no1)[C@](O)(Cn1cncn1)c1ccc(F)cc1F	2 µg/mL (≈ 4.46 µM)	0.125 µg/mL (≈ 0.279 µM)	0.125 µg/mL (≈ 0.279 µM)	8 µg/mL (≈ 17.8 µM)	0.0156 µg/mL (≈ 0.0348 µM)	0.0313 µg/mL (≈ 0.0697 µM)	0.25 µg/mL (≈ 0.557 µM)	0.125 µg/mL (≈ 0.279 µM)
C[C@@H](c1cc(-c2cc(F)ccc2F)no1)[C@](O)(Cn1cncn1)c1cc(F)ccc1F	> 8 µg/mL	0.5 µg/mL (≈ 1.16 µM)	1 µg/mL (≈ 2.31 µM)	> 8 µg/mL	0.125 µg/mL (≈ 0.289 µM)	0.125 µg/mL (≈ 0.289 µM)	8 µg/mL (≈ 18.5 µM)	1 µg/mL (≈ 2.31 µM)
C[C@@H](c1cc(-c2c(F)ccc(F)c2F)no1)[C@](O)(Cn1cncn1)c1ccc(F)cc1F	0.5 µg/mL (≈ 1.11 µM)	0.125 µg/mL (≈ 0.278 µM)	0.125 µg/mL (≈ 0.278 µM)	2 µg/mL (≈ 4.44 µM)	0.0625 µg/mL (≈ 0.139 µM)	0.0625 µg/mL (≈ 0.139 µM)	0.0625 µg/mL (≈ 0.139 µM)	0.25 µg/mL (≈ 0.555 µM)
C[C@@H](c1cc(-c2ccc([N+](=O)[O-])cc2)no1)[C@](O)(Cn1cncn1)c1ccc(F)cc1F	2 µg/mL (≈ 4.53 µM)	0.125 µg/mL (≈ 0.283 µM)	0.5 µg/mL (≈ 1.13 µM)	> 8 µg/mL	0.5 µg/mL (≈ 1.13 µM)	0.125 µg/mL (≈ 0.283 µM)	1 µg/mL (≈ 2.27 µM)	0.125 µg/mL (≈ 0.283 µM)
C[C@@H](c1cc(-c2ccc(F)cc2)no1)[C@](O)(Cn1cncn1)c1ccc(F)cc1F	0.5 µg/mL (≈ 1.21 µM)	0.125 µg/mL (≈ 0.302 µM)	0.0625 µg/mL (≈ 0.151 µM)	2 µg/mL (≈ 4.83 µM)	0.0313 µg/mL (≈ 0.0755 µM)	0.125 µg/mL (≈ 0.302 µM)	0.0625 µg/mL (≈ 0.151 µM)	0.25 µg/mL (≈ 0.603 µM)
C[C@@H](c1cc(-c2cccc(F)c2F)no1)[C@](O)(Cn1cncn1)c1cc(F)ccc1F	> 8 µg/mL	0.5 µg/mL (≈ 1.16 µM)	2 µg/mL (≈ 4.63 µM)	> 8 µg/mL	0.125 µg/mL (≈ 0.289 µM)	0.125 µg/mL (≈ 0.289 µM)	8 µg/mL (≈ 18.5 µM)	0.5 µg/mL (≈ 1.16 µM)
C[C@@H](c1cc(-c2cc(F)cc(F)c2)no1)[C@](O)(Cn1cncn1)c1ccc(F)cc1F	2 µg/mL (≈ 4.63 µM)	0.0625 µg/mL (≈ 0.145 µM)	0.25 µg/mL (≈ 0.578 µM)	4 µg/mL (≈ 9.25 µM)	0.0625 µg/mL (≈ 0.145 µM)	0.125 µg/mL (≈ 0.289 µM)	0.25 µg/mL (≈ 0.578 µM)	0.125 µg/mL (≈ 0.289 µM)
C[C@@H](c1cc(-c2ccc(OC(F)F)cc2)no1)[C@](O)(Cn1cncn1)c1ccc(F)cc1F	1 µg/mL (≈ 2.16 µM)	0.0625 µg/mL (≈ 0.135 µM)	0.125 µg/mL (≈ 0.27 µM)	8 µg/mL (≈ 17.3 µM)	0.0625 µg/mL (≈ 0.135 µM)	0.125 µg/mL (≈ 0.27 µM)	0.125 µg/mL (≈ 0.27 µM)	0.0625 µg/mL (≈ 0.135 µM)
C[C@@H](c1cc(-c2cccc(F)c2F)no1)[C@](O)(Cn1cncn1)c1ccc(F)cc1F	0.5 µg/mL (≈ 1.16 µM)	0.0625 µg/mL (≈ 0.145 µM)	0.25 µg/mL (≈ 0.578 µM)	2 µg/mL (≈ 4.63 µM)	0.125 µg/mL (≈ 0.289 µM)	0.125 µg/mL (≈ 0.289 µM)	0.125 µg/mL (≈ 0.289 µM)	0.0625 µg/mL (≈ 0.145 µM)

Continued, values first:

MIC80 (Nannizzia gypsea)	MIC80 (Candida albicans [1])	MIC80 (Candida parapsilosis)	MIC80 (Aspergillus fumigatus)	MIC80 (Nakaseomyces glabratus)	MIC80 (Cryptococcus neoformans)	MIC80 (Trichophyton rubrum)	MIC80 (Candida albicans [2])	Compound
4 µg/mL (≈ 8.43 µM)	0.125 µg/mL (≈ 0.263 µM)	0.125 µg/mL (≈ 0.263 µM)	8 µg/mL (≈ 16.9 µM)	0.25 µg/mL (≈ 0.527 µM)	0.25 µg/mL (≈ 0.527 µM)	1 µg/mL (≈ 2.11 µM)	0.125 µg/mL (≈ 0.263 µM)	C[C@@H](c1cc(-c2ccc(S(C)(=O)=O)cc2)no1)[C@](O)(Cn1cncn1)c1ccc(F)cc1F
4 µg/mL (≈ 9.25 µM)	0.125 µg/mL (≈ 0.289 µM)	0.125 µg/mL (≈ 0.289 µM)	8 µg/mL (≈ 18.5 µM)	0.0156 µg/mL (≈ 0.0361 µM)	0.125 µg/mL (≈ 0.289 µM)	0.5 µg/mL (≈ 1.16 µM)	0.125 µg/mL (≈ 0.289 µM)	C[C@@H](c1cc(-c2ccc(F)c(F)c2)no1)[C@](O)(Cn1cncn1)c1ccc(F)cc1F
4 µg/mL (≈ 8.91 µM)	0.0156 µg/mL (≈ 0.0348 µM)	0.5 µg/mL (≈ 1.11 µM)	> 8 µg/mL	0.25 µg/mL (≈ 0.557 µM)	0.25 µg/mL (≈ 0.557 µM)	0.5 µg/mL (≈ 1.11 µM)	0.0313 µg/mL (≈ 0.0697 µM)	C[C@@H](c1cc(-c2ccc(Cl)c(F)c2)no1)[C@](O)(Cn1cncn1)c1ccc(F)cc1F
1 µg/mL (≈ 2.31 µM)	0.0625 µg/mL (≈ 0.145 µM)	0.125 µg/mL (≈ 0.289 µM)	4 µg/mL (≈ 9.25 µM)	0.0625 µg/mL (≈ 0.145 µM)	0.125 µg/mL (≈ 0.289 µM)	0.125 µg/mL (≈ 0.289 µM)	0.0625 µg/mL (≈ 0.145 µM)	C[C@@H](c1cc(-c2cc(F)ccc2F)no1)[C@](O)(Cn1cncn1)c1ccc(F)cc1F
> 8 µg/mL	0.125 µg/mL (≈ 0.289 µM)	0.25 µg/mL (≈ 0.578 µM)	> 8 µg/mL	0.0156 µg/mL (≈ 0.0361 µM)	0.125 µg/mL (≈ 0.289 µM)	1 µg/mL (≈ 2.31 µM)	0.125 µg/mL (≈ 0.289 µM)	C[C@@H](c1cc(-c2ccc(F)c(F)c2)no1)[C@](O)(Cn1cncn1)c1cc(F)ccc1F
1 µg/mL (≈ 2.37 µM)	0.25 µg/mL (≈ 0.593 µM)	0.125 µg/mL (≈ 0.297 µM)	8 µg/mL (≈ 19 µM)	0.0625 µg/mL (≈ 0.148 µM)	0.125 µg/mL (≈ 0.297 µM)	0.125 µg/mL (≈ 0.297 µM)	0.25 µg/mL (≈ 0.593 µM)	C[C@@H](c1cc(-c2ccc(C#N)cc2)no1)[C@](O)(Cn1cncn1)c1ccc(F)cc1F
